One data set is described as follows: logD by HPLC analysis. The data set is classed as physicochemical. To be noted: determined using HPLC analysis.
Data set [1] concerns 60 different human pathogenic tumor cell lines. The experiment in a line: DTP NCI-60 in vitro human tumor cell line screening (SRB). The data set is classed as cell-based. Conditions: mean growth inhibition of all 60 tumor cell lines, two days exposure. Here is the method: For studying the pharmacological properties, the compounds of Examples 1 to 3 were tested under the “DTP NCI-60 in vitro human tumor cell line screening” of the National Cancer Institute (NCI), Bethesda, Md., United States. They were tested against 60 different human pathogenic tumor cell lines which originated from nine types of cancer (leukemia, non-small cell lung cancer, colon cancer, cancer of the CNS, melanoma, ovarian cancer, renal cancer, prostate cancer, breast cancer). To assess efficacy, the tumor cells were exposed to the compounds over two days, then growth inhibition was determined indirectly by determining the protein biomass with sulforhodamine B (SRB). Untreated cultures were used as reference. The mean-graph midpoint (MG_MIDGGI50) corresponds to a mean response rate of all tested human cell lines for the substance tested.

The test system of data set [2] is pancreatic carcinoma, ovarian carcinoma, and prostate cancer. Conditions: phase II study, at least some cases; cited from earlier work.
For data set [3], the system named is PARP (poly-ADP ribose polymerase) cleavage. Kind of data set: PARP assay comparing Example 1 and PZA (FIG. 4). The data set is classed as cell-based. Here is the method: (§1) In addition, exemplary compound 1 was tested for apoptotic activity. The enzyme PARP (poly-ADP ribose polymerase) can be used to determine the apoptotic status of a cell; the enzyme is cleaved into a 89 kDa fragment when the cell transitions into apoptosis and can therefore serve as a apoptosis marker ([…] S H et al, Cancer Research, 1993; 53:3976-3985). […] Etoposide was chosen as reference compound and tested as well.
Another PARP assay was performed to obtain a direct comparison of the pro-apoptotic effects of Example 1 (here: P8D 6) and the potent dual topoisomerase I/II inhibitor pyrazoloacridine (PZA) known from literature (FIG. 4).

The subject of data set [4] is malignant melanoma, hepatocellular carcinoma, and mesothelioma. To be noted: clinical study, with carboplatin; cited from earlier work.
A short description of data set [5]: Solubility pH 7.4 by HPLC analysis. In kind it is physicochemical. Conditions: aqueous buffer; pH 7.4, HPLC analysis.
Another data set concerns HeLa cells. The experiment in a line: PARP apoptosis assay (HeLa cells). The data set is classed as cell-based. To be noted: after 8 h, FIG. 3. Here is the method:
as §1

In data set [6] the test system is cancer in the head and neck, colon carcinoma, renal carcinoma, and non-small cell lung cancer. Conditions: literature; cited from earlier work.
In data set [7] the test system is malignant melanoma, cervical cancer, and cancer of the parotid gland. To be noted: clinical phase I; cited from earlier work.
In data set [8] the test system is colon carcinoma and non-small cell lung cancer. Conditions: in-vivo xenograft; cited from earlier work.
In data set [9] the test system is mammary carcinoma, ovarian carcinoma, colon carcinoma, renal cell carcinoma, and non-small cell lung cancer. To be noted: literature; cited from earlier work.
The conditions of data set [10]: clinical phase I; cited from earlier work.
In the next data set the target is human topoisomerase IIα (Homo sapiens, UniProt P11388). The experiment in a line: Decatenation assay (kDNA). In kind it is biochemical. Conditions: for inhibition of topo IIα: 10 μM and 100 μM, FIG. 2 lanes 4 and 5.
Chain of human topoisomerase IIα (P11388 whole entry): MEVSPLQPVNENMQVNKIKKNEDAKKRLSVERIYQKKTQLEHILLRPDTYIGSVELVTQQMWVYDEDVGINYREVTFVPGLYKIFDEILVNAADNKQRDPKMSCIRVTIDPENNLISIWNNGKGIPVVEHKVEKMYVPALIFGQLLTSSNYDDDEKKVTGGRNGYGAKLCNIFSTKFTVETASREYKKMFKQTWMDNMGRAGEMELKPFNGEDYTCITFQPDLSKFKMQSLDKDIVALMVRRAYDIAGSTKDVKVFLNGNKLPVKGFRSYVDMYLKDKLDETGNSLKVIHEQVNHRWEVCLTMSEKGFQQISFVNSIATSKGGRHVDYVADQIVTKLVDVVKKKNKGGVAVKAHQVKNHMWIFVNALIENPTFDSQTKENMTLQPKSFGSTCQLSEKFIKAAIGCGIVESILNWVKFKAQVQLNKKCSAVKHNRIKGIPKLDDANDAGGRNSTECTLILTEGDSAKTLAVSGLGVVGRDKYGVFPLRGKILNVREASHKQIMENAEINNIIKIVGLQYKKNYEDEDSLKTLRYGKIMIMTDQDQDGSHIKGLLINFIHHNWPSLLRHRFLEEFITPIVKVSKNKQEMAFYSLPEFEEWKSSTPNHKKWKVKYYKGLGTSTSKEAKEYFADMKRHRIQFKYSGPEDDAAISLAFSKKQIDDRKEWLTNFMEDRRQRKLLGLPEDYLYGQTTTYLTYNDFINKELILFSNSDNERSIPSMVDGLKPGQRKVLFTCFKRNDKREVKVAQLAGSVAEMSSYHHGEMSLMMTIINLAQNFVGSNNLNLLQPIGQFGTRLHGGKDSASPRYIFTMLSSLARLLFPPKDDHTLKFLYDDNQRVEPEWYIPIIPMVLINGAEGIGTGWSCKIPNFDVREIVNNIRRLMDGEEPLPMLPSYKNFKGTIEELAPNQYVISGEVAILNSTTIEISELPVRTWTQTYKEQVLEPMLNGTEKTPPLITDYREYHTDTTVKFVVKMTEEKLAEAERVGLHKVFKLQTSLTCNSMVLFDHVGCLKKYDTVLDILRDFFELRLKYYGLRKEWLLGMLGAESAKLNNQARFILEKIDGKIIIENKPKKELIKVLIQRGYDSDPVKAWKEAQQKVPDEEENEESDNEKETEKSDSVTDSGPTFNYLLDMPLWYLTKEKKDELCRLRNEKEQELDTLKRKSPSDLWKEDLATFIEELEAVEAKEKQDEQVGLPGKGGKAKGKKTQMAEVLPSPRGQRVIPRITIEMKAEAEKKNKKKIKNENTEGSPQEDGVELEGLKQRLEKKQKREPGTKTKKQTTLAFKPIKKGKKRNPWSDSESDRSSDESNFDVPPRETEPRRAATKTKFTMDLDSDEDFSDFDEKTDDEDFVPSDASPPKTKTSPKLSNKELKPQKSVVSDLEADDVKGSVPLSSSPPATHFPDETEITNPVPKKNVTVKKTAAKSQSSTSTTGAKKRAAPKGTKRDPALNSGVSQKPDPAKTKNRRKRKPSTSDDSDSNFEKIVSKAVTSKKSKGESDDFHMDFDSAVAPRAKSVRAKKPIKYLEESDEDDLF
Another data set concerns the target human topoisomerase IIβ (Homo sapiens, UniProt Q02880). The experiment in a line: Decatenation assay (kDNA). The data set is classed as biochemical. To be noted: all three enzymes tested; read-out: IC50 topoisomerase IIβ.
In a further data set the target is T1, human topoisomerase I (Homo sapiens, UniProt P11387).
T1 sequence (P11387 1-765): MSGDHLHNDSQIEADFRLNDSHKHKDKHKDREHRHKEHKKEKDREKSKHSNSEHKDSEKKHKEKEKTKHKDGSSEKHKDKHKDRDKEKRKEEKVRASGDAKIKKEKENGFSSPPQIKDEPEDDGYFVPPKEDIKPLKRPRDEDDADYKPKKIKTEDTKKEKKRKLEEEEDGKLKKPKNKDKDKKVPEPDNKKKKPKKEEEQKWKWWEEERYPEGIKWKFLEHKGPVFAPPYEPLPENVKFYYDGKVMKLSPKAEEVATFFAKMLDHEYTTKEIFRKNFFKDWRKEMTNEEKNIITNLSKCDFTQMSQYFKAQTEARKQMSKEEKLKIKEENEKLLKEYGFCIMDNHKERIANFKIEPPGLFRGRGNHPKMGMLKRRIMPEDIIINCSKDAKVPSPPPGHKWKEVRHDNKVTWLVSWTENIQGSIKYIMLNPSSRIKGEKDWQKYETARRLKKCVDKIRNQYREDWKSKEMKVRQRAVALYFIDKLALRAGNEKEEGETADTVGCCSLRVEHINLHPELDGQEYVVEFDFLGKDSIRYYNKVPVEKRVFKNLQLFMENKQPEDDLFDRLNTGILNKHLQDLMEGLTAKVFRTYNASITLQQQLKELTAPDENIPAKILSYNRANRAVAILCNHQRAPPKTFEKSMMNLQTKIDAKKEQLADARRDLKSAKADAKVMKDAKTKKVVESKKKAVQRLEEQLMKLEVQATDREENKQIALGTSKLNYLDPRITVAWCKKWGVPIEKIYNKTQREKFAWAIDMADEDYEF
Kind of data set: Relaxation assay (supercoiled plasmid pUC18). The data set is classed as biochemical.

Data set [11] can be described thus: Tolerability / MTD study, one-time intravenous application. The data set is classed as in vivo, female athymic nude mice. Here is the method: The maximum tolerated dose (MTD) was determined as part of an in vivo study of tolerability of P8-D6 in female athymic nude mice.
A total of 18 female athymic nude mice at ages of 7 weeks (groups 1 and 2), 8 weeks (groups 3 and 4), and 9 weeks (groups 5 and 6) were involved in the in vivo study.
To determine the tolerability of P8-D6 for a one-time intravenous application into the tail vein, the study animals of groups 2, 4, and 6 (3 animals per group) were given P8-D6 at doses of 1 mg/kg body weight, 5 mg/kg body weight, and 10 mg/kg body weight on study days 0, 7, and 14, respectively. The control animals of groups 1, 3, and 5 (3 animals per group) were administered PBS (phosphate buffered saline) (pH 7.4) at a dose of 10 mL/kg body weight on the same respective days. The study animals were monitored in a period of up to 14 days for clinical signs, changes in behavior, and survival. The body weight was measured three times a week. The first measurement was on the application day. Criteria for early abortion of the study for ethical reasons were weight loss of more than 20% from the baseline weight. A necropsy was performed on study animals that died during the study and on all other study animals at the end of the study phase. Organ samples were taken from six study animals ([…], 1 animal from group 1, 1 animal from group 2, and one animal from group 6).

Structures can show the parent of a compound that is named as a salt. A value given as a limit tells only on which side of the number the result lay.

Chain of human topoisomerase IIβ (Q02880 whole entry): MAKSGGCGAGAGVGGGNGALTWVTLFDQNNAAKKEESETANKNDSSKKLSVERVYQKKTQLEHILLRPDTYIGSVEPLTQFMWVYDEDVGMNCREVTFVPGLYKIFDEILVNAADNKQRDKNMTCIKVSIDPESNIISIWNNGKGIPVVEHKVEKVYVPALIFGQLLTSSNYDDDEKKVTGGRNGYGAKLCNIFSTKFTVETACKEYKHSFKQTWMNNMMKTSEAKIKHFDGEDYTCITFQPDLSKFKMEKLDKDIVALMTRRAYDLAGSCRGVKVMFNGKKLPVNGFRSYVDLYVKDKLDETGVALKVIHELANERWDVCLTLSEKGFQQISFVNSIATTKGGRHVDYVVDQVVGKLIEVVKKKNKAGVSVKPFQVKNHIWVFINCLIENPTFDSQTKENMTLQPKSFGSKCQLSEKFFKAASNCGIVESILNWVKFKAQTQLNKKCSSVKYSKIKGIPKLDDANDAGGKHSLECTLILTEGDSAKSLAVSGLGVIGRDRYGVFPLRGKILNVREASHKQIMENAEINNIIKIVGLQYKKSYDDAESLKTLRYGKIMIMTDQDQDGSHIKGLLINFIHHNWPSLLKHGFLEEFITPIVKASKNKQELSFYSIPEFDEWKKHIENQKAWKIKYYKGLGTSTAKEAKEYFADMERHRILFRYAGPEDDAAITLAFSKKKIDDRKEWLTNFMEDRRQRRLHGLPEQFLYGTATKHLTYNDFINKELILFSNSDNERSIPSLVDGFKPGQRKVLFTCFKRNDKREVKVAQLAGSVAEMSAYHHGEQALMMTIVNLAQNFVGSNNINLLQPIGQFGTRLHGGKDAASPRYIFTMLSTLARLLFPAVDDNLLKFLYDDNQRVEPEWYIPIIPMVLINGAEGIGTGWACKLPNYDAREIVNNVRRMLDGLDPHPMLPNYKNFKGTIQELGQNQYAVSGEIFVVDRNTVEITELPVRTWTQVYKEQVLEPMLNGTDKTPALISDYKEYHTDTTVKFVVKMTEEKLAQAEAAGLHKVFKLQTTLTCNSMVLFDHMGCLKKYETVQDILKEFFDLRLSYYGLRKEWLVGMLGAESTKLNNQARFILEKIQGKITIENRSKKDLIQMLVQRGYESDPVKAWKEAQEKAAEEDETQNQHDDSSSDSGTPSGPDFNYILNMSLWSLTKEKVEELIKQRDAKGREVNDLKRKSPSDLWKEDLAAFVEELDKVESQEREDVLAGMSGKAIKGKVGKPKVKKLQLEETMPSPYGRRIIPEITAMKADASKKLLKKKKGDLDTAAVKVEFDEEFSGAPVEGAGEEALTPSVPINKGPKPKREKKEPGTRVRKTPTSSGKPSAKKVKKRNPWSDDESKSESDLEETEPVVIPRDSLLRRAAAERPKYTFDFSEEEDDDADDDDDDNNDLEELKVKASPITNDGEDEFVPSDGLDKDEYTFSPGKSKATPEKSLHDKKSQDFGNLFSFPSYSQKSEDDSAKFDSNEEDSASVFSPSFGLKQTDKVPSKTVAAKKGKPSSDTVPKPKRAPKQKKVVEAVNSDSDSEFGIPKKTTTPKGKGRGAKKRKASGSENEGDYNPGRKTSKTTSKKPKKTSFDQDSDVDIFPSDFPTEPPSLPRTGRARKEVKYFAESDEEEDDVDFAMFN
From the text for human topoisomerase IIα: (§2) A decatenation assay was used, which can be used to determine the inhibition of human topoisomerases II (α/β) by a substance. The protein is capable of decatenating kinetoplastid DNA (kDNA), which is present in the form of interlocked minicircles (so-called catenates), i.e. of cleaving it into individual minicircles.
From the text for human topoisomerase IIβ: as §2

Take `COc1cc(-c2cc3ccncc3c3nc(OCCCN(C)C)c4cnccc4c23)cc(OC)c1OC` [Example 2, 6-(3-dimethylaminopropoxy)-11-(3,4,5-trimethoxyphenyl)pyrido[3,4-c][1,9]-phenanthroline]: the chromatographic logD (as a rule, a lipophilicity value derived from retention on a column) in the data set “logD by HPLC analysis” was determined as 3.6. For the same compound, in [1] (Homo sapiens, 48 h), growth was halved (GI50) at 52 nM.

Turning to `COc1ccc2c(c1)-c1nn(CCCN(C)C)c3ccc([N+](=O)[O-])c(c13)N2` [PZA, pyrazoloacridine], the figures for the clinical outcome in data set [2] and in [4] were “partial remission” and “could not be cured but were stabilized over a few months”, respectively. The GI50 (usually the concentration at which growth is held to half of that of the control) in data set [1] (Homo sapiens, 48 h) came to 200 nM. For the same compound, in data set [3] (FIG. 4), the “concentration at which effective in PARP assay” value was 100 µM.

Consider `CN(C)CCOc1nc2c(c3ccncc13)C(c1cccc(Cl)c1)Cc1ccncc1-2` (centres unmarked) [Example 3, 11-(3-chlorophenyl)-6-(2-dimethylaminoethoxy)-11,12-dihydropyrido[3,4-c]-[1,9]phenanthroline Hydrochloride], for which the chromatographic logD in “logD by HPLC analysis” amounted to 3.6. For the same compound, the solubility (commonly the concentration that dissolves in the medium under given conditions) in data set [5] stood at 5.28 ± 0.09 mM. Also, halving of growth in data set [1] (Homo sapiens, 48 h) (GI50) required 447 nM.

Compound `COc1cc([C@@H]2c3cc4c(cc3[C@@H](O[C@@H]3O[C@@H]5CO[C@@H](C)O[C@H]5[C@H](O)[C@H]3O)[C@H]3COC(=O)[C@H]23)OCO4)cc(OC)c1O` [Etoposide, reference compound] had a GI50 in data set [1] (Homo sapiens, 48 h) of 990 nM. Moreover, in the data set on HeLa cells, the “concentration at which cleaved PARP (89 kDa band) is visible / apoptosis initiated” value was greater than 100 µM.

Compound `CC[C@@]1(O)C(=O)OCc2c1cc1n(c2=O)Cc2cc3ccccc3nc2-1` [Camptothecin, reference compound] yielded a GI50 in data set [1] (Homo sapiens, 48 h) of 44 nM. That is a double-digit nanomolar value.

`CN(C)CCNc1nc2cc(O)ccc2c2c1C(=O)c1ccccc1-2` [TAS-103]: the efficacy in patients entry in data set [6] is given as “sufficient to keep patients stable for a period of a few months, but a cure could not be achieved”.

On to `COc1cc([C@@H]2c3cc4c(cc3[C@@H](O[C@@H]3O[C@@H]5CO[C@@H](c6cccs6)O[C@H]5[C@H](O)[C@H]3O)[C@H]3COC(=O)[C@H]23)OCO4)cc(OC)c1O` [Teniposide], for which the GI50 in data set [1] (Homo sapiens, 48 h) turned out to be 390 nM.

In [1] (Homo sapiens, 48 h), `CC[C@@]1(O)C(=O)OCc2c1cc1n(c2=O)Cc2cc3c(CN(C)C)c(O)ccc3nc2-1` [Topotecan] showed a 50% growth inhibitory concentration (GI50) of 14 nM.

As for `COc1cccc2c1ccc1nc3cccc(C(=O)N[C@H](C)CN(C)C)c3nc12` [XR11576], the clinical outcome in data set [7] was “stabilization, but no remission”. Besides, in [8], the activity in xenograft result is “high activity”.

`Cc1cnc(NCCCN(C)C)c2c1[nH]c1ccc3cc(O)ccc3c12` [Intoplicin]: growth in data set [1] was halved (GI50) at 530 nM. Besides, in [9], the activity against carcinomas result is listed as “high activity”. For the same compound, in data set [10], the hepatotoxicity result was “dose-limiting”.

For `CCc1c2c(nc3ccc(OC(=O)N4CCC(N5CCCCC5)CC4)cc13)-c1cc3c(c(=O)n1C2)COC(=O)[C@]3(O)CC` [Irinotecan], in [1] (Homo sapiens, 48 h), the GI50 is 160 nM. That is a sub-micromolar value.

In the case of `COc1cc(-c2cc3ccncc3c3nc(OCCN(C)C)c4cnccc4c23)cc(OC)c1OC` [Example 1, 6-(2-dimethylaminoethoxy)-11-(3,4,5-trimethoxyphenyl)pyrido[3,4-c][1,9]-phenanthroline Hydrochloride], in the data set “logD by HPLC analysis”, the chromatographic logD stood at 3.7. In [5], this compound returned a solubility of 0.87 ± 0.03 mM. For the same compound, the “inhibition of topo IIα” value against human topoisomerase IIα (Hydrochloride) is “exemplary inhibition of topo IIα”; on human topoisomerase IIα (listed as exemplary compound 1, Hydrochloride), “potently inhibit topo IIα”. Also, the IC50 – broadly, the point on the concentration scale where inhibition reaches its midpoint – at human topoisomerase IIα (all three enzymes tested, read-out: IC50 topoisomerase IIα) is less than 10000 nM; on human topoisomerase IIβ, less than 10000 nM; at human topoisomerase I (all three enzymes tested, read-out: IC50 topoisomerase I) it was less than 10000 nM. The same compound yielded a GI50 in data set [1] (Homo sapiens, 48 h) of 49 nM. Besides, the “concentration at which cleaved PARP (89 kDa band) is visible / apoptosis initiated” value in the data set on HeLa cells turned out to be 1 µM. Also, in data set [3] (FIG. 4, direct comparison with PZA), the “apoptotic effect in PARP assay” value was “extraordinarily strong apoptotic effect”. Further, the “inhibition of topoisomerase I activity” value on human topoisomerase I (at 10 μM, FIG. 1) was “almost complete”. Moreover, the tolerability result in data set [11] (1 mg/kg body weight, female athymic nude mice) is on record as “good tolerability”. In addition, the “loss of body weight and apathy” value in [11] (5 mg/kg body weight, female athymic nude mice) is listed as “reversible”. Further, the “acute lethal side effects” value in data set [11] (1, 5 and 10 mg/kg body weight) is “None”.

The record behind these values is patent US11046693B2, “Pyrido-phenanthroline derivatives, production and use thereof as medicaments” (Christian-Albrechts-Universitat Zu Kiel, priority 2016, dated 2021).
